In the NIST ThermoML archive (doi:10.1007/s10765-009-0602-6):

Experiment: molar heat capacity at constant volume; xn = mol fraction of the nth substance listed
Conditions: Fluid (supercritical or subcritical phases), isochoric heat capacity, x1 = 0.2607

N [ammonia] + O
Conditions	molar heat capacity at constant volume [J/K/mol]
605.3 K, Mass density=329 kg/m3	82.4
605.39 K, Mass density=147.43 kg/m3	55.23
605.39 K, Mass density=329 kg/m3	83.73
605.47 K, Mass density=147.43 kg/m3	52.57
605.56 K, Mass density=329 kg/m3	84.16
605.64 K, Mass density=147.43 kg/m3	54.75
605.73 K, Mass density=147.43 kg/m3	55.07
605.82 K, Mass density=147.43 kg/m3	55.82
605.9 K, Mass density=147.43 kg/m3	54.48
606.33 K, Mass density=195.99 kg/m3	62.19
606.41 K, Mass density=195.99 kg/m3	62.19
606.41 K, Mass density=376.89 kg/m3	80.52
606.5 K, Mass density=195.99 kg/m3	62.44
606.58 K, Mass density=376.89 kg/m3	81.48
606.66 K, Mass density=195.99 kg/m3	62.01
606.67 K, Mass density=376.89 kg/m3	83.04
606.75 K, Mass density=195.99 kg/m3	62.31
606.76 K, Mass density=376.89 kg/m3	82.08
606.84 K, Mass density=195.99 kg/m3	62.12
606.84 K, Mass density=376.89 kg/m3	79.68
607.69 K, Mass density=342.18 kg/m3	76.36
607.78 K, Mass density=309.95 kg/m3	83.5
607.78 K, Mass density=342.18 kg/m3	81.1
607.86 K, Mass density=342.18 kg/m3	78.56
607.86 K, Mass density=376.89 kg/m3	79.35
607.87 K, Mass density=309.95 kg/m3	80.85
607.95 K, Mass density=309.95 kg/m3	86.43
607.95 K, Mass density=342.18 kg/m3	76.04
607.95 K, Mass density=376.89 kg/m3	80.25
608.04 K, Mass density=309.95 kg/m3	82.99
608.04 K, Mass density=376.89 kg/m3	78.87
608.12 K, Mass density=376.89 kg/m3	77.04
608.19 K, Mass density=160.07 kg/m3	52.92
608.21 K, Mass density=309.95 kg/m3	84.23
608.21 K, Mass density=376.89 kg/m3	75.92
608.29 K, Mass density=376.89 kg/m3	79.42
608.38 K, Mass density=376.89 kg/m3	76.18
608.4 K, Mass density=160.07 kg/m3	53.56
608.54 K, Mass density=160.07 kg/m3	51.75
608.63 K, Mass density=160.07 kg/m3	53.4
608.72 K, Mass density=160.07 kg/m3	52.1
608.81 K, Mass density=160.07 kg/m3	52.48
608.9 K, Mass density=160.07 kg/m3	52.35
609.06 K, Mass density=195.99 kg/m3	62.14
609.14 K, Mass density=195.99 kg/m3	62.71
609.23 K, Mass density=195.99 kg/m3	62.28
609.3 K, Mass density=195.99 kg/m3	63.31
609.4 K, Mass density=195.99 kg/m3	62.65
609.4 K, Mass density=320.33 kg/m3	87.43
609.48 K, Mass density=195.99 kg/m3	63.19
609.48 K, Mass density=294.44 kg/m3	91.17
609.48 K, Mass density=320.33 kg/m3	84.26
609.57 K, Mass density=294.44 kg/m3	89.27
609.57 K, Mass density=320.33 kg/m3	85.97
609.65 K, Mass density=294.44 kg/m3	87.71
609.65 K, Mass density=308.35 kg/m3	76.86
609.65 K, Mass density=320.33 kg/m3	80.69
609.74 K, Mass density=195.99 kg/m3	62.31
609.74 K, Mass density=294.44 kg/m3	89.93
609.74 K, Mass density=320.33 kg/m3	83.43
609.82 K, Mass density=294.44 kg/m3	89.02
609.82 K, Mass density=308.35 kg/m3	74.71
609.91 K, Mass density=308.35 kg/m3	78.67
609.99 K, Mass density=308.35 kg/m3	77.82
610.08 K, Mass density=308.35 kg/m3	76.77
610.17 K, Mass density=312.91 kg/m3	84.03
610.25 K, Mass density=312.91 kg/m3	83.02
610.33 K, Mass density=312.91 kg/m3	81.99
610.42 K, Mass density=311.19 kg/m3	84.41
610.42 K, Mass density=312.91 kg/m3	81.69
610.51 K, Mass density=311.19 kg/m3	81.05
610.51 K, Mass density=312.91 kg/m3	81.85
610.53 K, Mass density=311.19 kg/m3	82.17
610.59 K, Mass density=307.35 kg/m3	83.84
610.59 K, Mass density=312.91 kg/m3	80.77
610.68 K, Mass density=307.35 kg/m3	83.61
610.76 K, Mass density=307.35 kg/m3	85.1
610.77 K, Mass density=311.19 kg/m3	80
610.84 K, Mass density=311.19 kg/m3	82.42
610.85 K, Mass density=307.35 kg/m3	81.92
610.93 K, Mass density=307.35 kg/m3	80.84
611.02 K, Mass density=301.94 kg/m3	85.7
611.02 K, Mass density=307.35 kg/m3	83.41
611.1 K, Mass density=301.94 kg/m3	86.38
611.1 K, Mass density=307.35 kg/m3	81.26
611.19 K, Mass density=299.79 kg/m3	81.78
611.23 K, Mass density=301.94 kg/m3	84.69
611.27 K, Mass density=299.79 kg/m3	82.1
611.35 K, Mass density=230.31 kg/m3	80.27
611.35 K, Mass density=301.94 kg/m3	83.16
611.36 K, Mass density=299.79 kg/m3	80.3
611.44 K, Mass density=230.31 kg/m3	81.01
611.44 K, Mass density=299.79 kg/m3	81.57
611.44 K, Mass density=301.94 kg/m3	83.38
611.52 K, Mass density=230.31 kg/m3	77.59
611.53 K, Mass density=299.79 kg/m3	80.94
611.57 K, Mass density=230.31 kg/m3	78.33
611.61 K, Mass density=299.79 kg/m3	79.86
611.61 K, Mass density=301.94 kg/m3	85.13
611.8 K, Mass density=230.31 kg/m3	77.07
612.29 K, Mass density=342.18 kg/m3	78.23
612.46 K, Mass density=376.89 kg/m3	76.4
612.55 K, Mass density=342.18 kg/m3	77.21
612.55 K, Mass density=376.89 kg/m3	78.49
612.63 K, Mass density=342.18 kg/m3	78.71
612.63 K, Mass density=376.89 kg/m3	74.83
612.8 K, Mass density=342.18 kg/m3	78.26
612.8 K, Mass density=376.89 kg/m3	75.58
612.89 K, Mass density=376.89 kg/m3	77.5
615.18 K, Mass density=160.07 kg/m3	57.18
615.27 K, Mass density=160.07 kg/m3	57.36
615.35 K, Mass density=160.07 kg/m3	59.17
615.52 K, Mass density=160.07 kg/m3	57.77
615.61 K, Mass density=160.07 kg/m3	57.15
615.69 K, Mass density=160.07 kg/m3	58.32
615.78 K, Mass density=160.07 kg/m3	59.81
615.86 K, Mass density=311.19 kg/m3	80.59
615.94 K, Mass density=311.19 kg/m3	82.26
615.94 K, Mass density=312.91 kg/m3	84.14
616.03 K, Mass density=311.19 kg/m3	78.26
616.03 K, Mass density=312.91 kg/m3	81.62
616.2 K, Mass density=309.95 kg/m3	81.9
616.2 K, Mass density=311.19 kg/m3	79.08
616.2 K, Mass density=312.91 kg/m3	78.12
616.24 K, Mass density=329 kg/m3	79.1
616.28 K, Mass density=309.95 kg/m3	81.26
616.29 K, Mass density=312.91 kg/m3	77.14
616.37 K, Mass density=309.95 kg/m3	80.5
616.37 K, Mass density=311.19 kg/m3	78.05
616.37 K, Mass density=312.91 kg/m3	80.69
616.45 K, Mass density=309.95 kg/m3	78.62
616.45 K, Mass density=329 kg/m3	75.46
616.54 K, Mass density=329 kg/m3	77.16
616.55 K, Mass density=309.95 kg/m3	82.93
616.62 K, Mass density=329 kg/m3	76.27
616.69 K, Mass density=299.79 kg/m3	82.29
616.71 K, Mass density=329 kg/m3	76.77
616.84 K, Mass density=299.79 kg/m3	80.34
616.95 K, Mass density=299.79 kg/m3	81.41
617.05 K, Mass density=299.79 kg/m3	82.13
617.13 K, Mass density=299.79 kg/m3	79.98
617.31 K, Mass density=299.79 kg/m3	80.5
617.46 K, Mass density=299.79 kg/m3	80.93
618.23 K, Mass density=342.18 kg/m3	78.08
618.32 K, Mass density=342.18 kg/m3	77.48
618.5 K, Mass density=342.18 kg/m3	78.3
618.57 K, Mass density=342.18 kg/m3	78.49
618.66 K, Mass density=342.18 kg/m3	76.77
619.76 K, Mass density=297.6 kg/m3	76.26
619.93 K, Mass density=297.6 kg/m3	75.1
620.01 K, Mass density=297.6 kg/m3	77.64
620.1 K, Mass density=297.6 kg/m3	76.82
624.74 K, Mass density=160.07 kg/m3	61.66
624.83 K, Mass density=160.07 kg/m3	63.49
624.99 K, Mass density=160.07 kg/m3	62.99
625.08 K, Mass density=160.07 kg/m3	60.95
625.16 K, Mass density=160.07 kg/m3	64.25
633.07 K, Mass density=160.07 kg/m3	67.64
633.16 K, Mass density=160.07 kg/m3	68.71
633.33 K, Mass density=160.07 kg/m3	67.18
633.49 K, Mass density=160.07 kg/m3	68.49
633.58 K, Mass density=160.07 kg/m3	67.41
633.66 K, Mass density=160.07 kg/m3	67.98
